According to article PMC3385710, “Assessment of 5-HT7 Receptor Agonists Selectivity Using Nociceptive and Thermoregulation Tests in Knockout versus Wild-Type Mice” (Advances in Pharmacological Sciences, 2012):

Experiments:
rats = tested on: rats; set-up: method as in PMID 16098671; settings: cited from earlier work
h5-HT1A = settings: cited from earlier work; for Affinity ratio versus 5-HT7 receptors (Ki h5-HT1A/Ki 5-HT7): number-fold higher for 5-HT7 than for the tested receptor; for Ki: radioligand binding, read-out: Affinity (Ki (nM)) h5-HT1A
h5-HT5A = tested on: h5-HT5A; set-up: method as in PMID 19118950, PMID 20399562; settings: cited from earlier work; for Ki: radioligand binding, read-out: Affinity (Ki (nM)) h5-HT5A
h5-HT3 = target: h5-HT3; set-up: method as in PMID 19118950, PMID 20399562; settings: radioligand binding; read-out: Affinity (Ki (nM)) h5-HT3; cited from earlier work
r5-HT1B = tested on: r5-HT1B; set-up: method as in PMID 19118950, PMID 20399562; settings: cited from earlier work; for Ki: radioligand binding, read-out: Affinity (Ki (nM)) r5-HT1B
Other receptors = target: Other receptors; set-up: method as in PMID 19118950, PMID 20399562; settings: panel of other receptors assayed; read-out: Affinity (Ki (nM)) Other receptors; cited from earlier work
[1] = tested on: 5-HT7 receptor knockout mice; assay: Formalin test in 5-HT7 receptor knockout mice; type: in vivo; settings: 15-30 min after formalin, versus vehicle
Text: (§1) Formaldehyde (37 wt.% solution) was purchased from Panreac (Spain) and dissolved in physiological saline. Drugs used for treatments were AS-19 (dimethyl-[5-(1,3,5-tri-methyl-1H-pyrazol-4-yl)-1,2,3,4-tetrahydro-naphthalen-2(S)-yl]-amine), E-55888 (dimethyl-{2-[3-(1,3,5-trimethyl-1H-pyrazol-4-yl)-phenyl]-ethyl}-amine dihydrochloride), and E-57431 (2-(2-(dimethylamino)ethyl)-4-(1,3,5-tri-methyl-1H-pyrazol-4-yl)phenol). AS-19 is a potent selective 5-HT7 receptor agonist commercially available from Tocris Bioscience (UK), whereas E-55888 and E-57431 are 5-HT7 receptor agonists developed by ESTEVE Laboratories (Barcelona, Spain). All three 5-HT7 receptor agonists were synthesized for the purpose of this study at ESTEVE, dissolved in aqueous solutions containing 0.5% (hydroxypropyl) methyl cellulose (Sigma-Aldrich, Spain) and administered in a volume of 5 ml/kg through the subcutaneous (s.c.) route. Doses of drugs (referred to their salt forms) and time of evaluation were selected based on previous studies and on pilot experiments in models used in this study. All treatments were performed under blind conditions in independent groups of mice and behavioral evaluation was done 30 min after drug administration.
(§2) Formalin (20 μL of a 2.5% formalin solution; 0.92% of formaldehyde) was injected into the dorsal surface on the right hind paw, as previously described. […] Mice were placed on a paper surface surrounded by a plexiglas cylinder (20 × 25 cm) and the time spent licking and biting the injected paw was measured using a chronometer. A time course of the licking/biting behaviors was monitored during 45 minutes after formalin injection to evaluate possible differences between genotypes. Drug effects were quantified at 0–5 min (phase I) and 15–30 min (phase II) after formalin injection, two periods of time in which the formalin-induced licking and biting time was high enough to test antinociceptive effects of drugs.

wild-type mice [2] = assay: Formalin test in wild-type mice; type: in vivo; settings: 15-30 min after formalin, versus vehicle
Text: as §1, §2

gp5-HT4 = target: gp5-HT4; set-up: method as in PMID 19118950, PMID 20399562; settings: radioligand binding; read-out: Affinity (Ki (nM)) gp5-HT4; cited from earlier work
wild-type mice [3] = assay: Rectal (body) temperature in wild-type mice; type: in vivo; settings: for Effect on body temperature: 30 min after administration
Text: as §1
(§3) The body temperature was recorded using a precision thermometer (YSI 4600) equipped with a flexible probe (YSI 402). This probe was lubricated with vaseline and inserted 2 cm into the rectum. Temperature recordings were made 20 s following insertion of the probe, as previously described.

h5-HT2A = target: h5-HT2A; set-up: method as in PMID 19118950, PMID 20399562; settings: cited from earlier work; for Ki: radioligand binding, read-out: Affinity (Ki (nM)) h5-HT2A
h5-HT1D = settings: cited from earlier work; for Affinity ratio versus 5-HT7 receptors (Ki h5-HT1D/Ki 5-HT7): number-fold higher for 5-HT7 than for the tested receptor; for Ki: radioligand binding, read-out: Affinity (Ki (nM)) h5-HT1D
h5-HT2C = target: h5-HT2C; set-up: method as in PMID 19118950, PMID 20399562; settings: radioligand binding; read-out: Affinity (Ki (nM)) h5-HT2C; cited from earlier work
h5-HT transporter (SERT) = target: h5-HT transporter (SERT); set-up: method as in PMID 19118950, PMID 20399562; settings: radioligand binding; read-out: Affinity (Ki (nM)) h5-HT transporter (SERT); cited from earlier work
h5-HT2B = target: h5-HT2B; set-up: method as in PMID 19118950, PMID 20399562; settings: radioligand binding; read-out: Affinity (Ki (nM)) h5-HT2B; cited from earlier work
h5-HT7 [4] = target: h5-HT7; set-up: method as in PMID 19118950, PMID 20399562; settings: radioligand binding; read-out: Affinity (Ki (nM)) h5-HT7; cited from earlier work
[5] = tested on: 5-HT7 receptor knockout mice; assay: Rectal (body) temperature in 5-HT7 receptor knockout mice; type: in vivo; settings: for Effect on body temperature: 30 min after administration
Text: as §1, §3

h5-HT7 [6] = tested on: h5-HT7; set-up: method as in PMID 19118950, PMID 20399562; settings: HEK-293F/h5-HT7 cells, cited from earlier work; for EC50: read-out: EC50, cAMP formation; for Maximal effect (E max), cAMP formation: relative to that of 5-HT
h5-HT6 = target: h5-HT6; set-up: method as in PMID 19118950, PMID 20399562; settings: radioligand binding; read-out: Affinity (Ki (nM)) h5-HT6; cited from earlier work
h5-HT4e = target: h5-HT4e; set-up: method as in PMID 19118950, PMID 20399562; settings: radioligand binding; read-out: Affinity (Ki (nM)) h5-HT4e; cited from earlier work
dopamine D2 receptor = tested on: dopamine D2 receptor; set-up: method as in PMID 17649988; settings: cited from earlier work
[7] = tested on: 5-HT1B, 5-HT2B, 5-HT2C, and 5-HT5A; set-up: method as in PMID 20600619; settings: cited from earlier work
5-HT1A = tested on: 5-HT1A; set-up: method as in PMID 14741267; settings: cited from earlier work
[8] = number-fold higher for 5-HT7 than for the tested receptor

| SMILES | Ki (h5-HT1A) [nM] | Ki (h5-HT5A) [nM] | Ki (h5-HT3) [nM] | Ki (r5-HT1B) [nM] | Ki (Other receptors) [nM] | Effect on body temperature (wild-type mice [3]; 20 mg/kg s.c.) | Ki (h5-HT2A) [nM] | Ki (h5-HT1D) [nM] | Ki (h5-HT2C) [nM] | Ki (h5-HT transporter (SERT)) [nM] | Ki (h5-HT2B) [nM] | Ki (h5-HT7 [4]) [nM] | Effect on body temperature ([5]; 20 mg/kg s.c.) | EC50 (h5-HT7 [6]) [µM] | Maximal effect (E max), cAMP formation (h5-HT7 [6]) [%] | Ki (h5-HT6) [nM] | also measured |
| --- | --- | --- | --- | --- | --- | --- | --- | --- | --- | --- | --- | --- | --- | --- | --- | --- | --- |
| NCCc1c[nH]c2ccc(C(N)=O)cc12 [5-carboxamidotryptamine] |  |  |  |  |  |  |  |  |  |  |  |  |  |  |  |  | Phase II formalin-induced nociceptive behavior (rats; intraplantar or spinal administration): increased |
| Cc1nn(C)c(C)c1-c1cccc2c1CC[C@H](N(C)C)C2 [AS-19, dimethyl-[5-(1,3,5-tri-methyl-1H-pyrazol-4-yl)-1,2,3,4-tetrahydro-naphthalen-2(S)-yl]-amine, reference compound] | 89.7 | 98.5 | > 1000 | 490 | > 1000 | significantly reduced | > 1000 | 6.6 | > 1000 | > 1000 | > 1000 | 0.6 | significantly reduced | 0.009 ± 0.001 | 77 | > 1000 | Affinity ratio versus 5-HT7 receptors (Ki h5-HT1A/Ki 5-HT7) (h5-HT1A): 149.5 x; Affinity ratio versus 5-HT7 receptors (Ki h5-HT5A/Ki 5-HT7) (h5-HT5A; [8]): 164.2 x; Affinity ratio versus 5-HT7 receptors (Ki r5-HT1B/Ki 5-HT7) (r5-HT1B; [8]): 816.6 x; Formalin phase II licking/biting time significantly reduced ([1]; 10 mg/kg s.c.): not; Formalin phase II licking/biting time (wild-type mice [2]; 10 mg/kg s.c.): significant reduction; Ki (gp5-HT4): > 1000 nM; Effect on body temperature (wild-type mice [3]; 10 mg/kg s.c.): did not significantly change; Body temperature reduction (wild-type mice [3]; 20 mg/kg s.c.): 3.8 °C; Affinity for 5-HT7 higher than for 5-HT1D (h5-HT1D): 11 fold; Affinity ratio versus 5-HT7 receptors (Ki h5-HT1D/Ki 5-HT7) (h5-HT1D): 11 x; Effect on body temperature ([5]; 10 mg/kg s.c.): did not significantly change; Body temperature reduction ([5]; 20 mg/kg s.c.): 2.4 °C |
| Cc1nn(C)c(C)c1-c1cccc(CCN(C)C)c1.Cl.Cl [E-55888, dimethyl-{2-[3-(1,3,5-trimethyl-1H-pyrazol-4-yl)-phenyl]-ethyl}-amine dihydrochloride] | 700 | > 1000 | > 1000 | > 1000 | > 1000 | did not significantly change | > 1000 | > 1000 | > 1000 | > 1000 | > 1000 | 2.5 | did not significantly change | 0.016 ± 0.001 | 99 ± 1 | > 1000 | Affinity for 5-HT7 higher than for 5-HT1A (h5-HT1A): 280 fold; Affinity ratio versus 5-HT7 receptors (Ki h5-HT1A/Ki 5-HT7) (h5-HT1A): 280 x; Formalin phase II licking/biting time significantly reduced ([1]; 20 mg/kg s.c.): not; Formalin phase II licking/biting time (wild-type mice [2]; 20 mg/kg s.c.): significant reduction; Ki (h5-HT4e): > 1000 nM |
| Cc1nn(C)c(C)c1-c1ccc(O)c(CCN(C)C)c1 [E-57431, 2-(2-(dimethylamino)ethyl)-4-(1,3,5-tri-methyl-1H-pyrazol-4-yl)phenol] | > 1000 | > 1000 | > 1000 | > 1000 | > 1000 | significantly reduced | 560 | 53 | > 1000 | > 1000 | > 1000 | 0.47 | significantly reduced | 0.0215 ± 0.001 | 94.5 ± 1 | > 1000 | Formalin phase II licking/biting time significantly reduced ([1]; 10 mg/kg s.c.): not; Formalin phase II licking/biting time (wild-type mice [2]; 10 mg/kg s.c.): significant reduction; Ki (gp5-HT4): > 1000 nM; Effect on body temperature (wild-type mice [3]; 10 mg/kg s.c.): did not significantly change; Body temperature reduction (wild-type mice [3]; 20 mg/kg s.c.): 1.1 °C; Affinity ratio versus 5-HT7 receptors (Ki h5-HT2A/Ki 5-HT7) (h5-HT2A; [8]): 1191.5 x; Affinity for 5-HT7 higher than for 5-HT1D (h5-HT1D): 112.7 fold; Affinity ratio versus 5-HT7 receptors (Ki h5-HT1D/Ki 5-HT7) (h5-HT1D): 112.7 x; Ki (h5-HT4e): > 1000 nM; Effect on body temperature ([5]; 10 mg/kg s.c.): did not significantly change; Body temperature reduction ([5]; 20 mg/kg s.c.): 2.3 °C |
| N#Cc1ccc(CNC(=O)CCCCCN2CCN(c3ccccc3-c3ccccc3)CC2)cc1 [LP-211] |  |  |  |  |  |  |  |  |  |  |  |  |  |  |  |  | Affinity for 5-HT7 higher than for dopamine D2 receptor (dopamine D2 receptor): 33 fold; Affinity for 5-HT7 higher than for 5-HT1B, 5-HT2B, 5-HT2C, and 5-HT5A [7]: 5-14 fold |
| CN(C)CCSc1cccc(-c2ccccc2)n1 [MSD-5a] |  |  |  |  |  |  |  |  |  |  |  |  |  |  |  |  | Affinity for 5-HT7 higher than for 5-HT1A (5-HT1A): 28.6 fold |
| CC1CCN(CC[C@H]2CCCN2S(=O)(=O)c2cccc(O)c2)CC1 [SB-269970, (R)-3-(2-(2-(4-methylpiperidin-1-yl)-ethyl)pyrrolidine-1-sulfonyl)phenol] |  |  |  |  |  |  |  |  |  |  |  |  |  |  |  |  | Effect on 5-carboxamidotryptamine-induced increase of phase II formalin nociceptive behavior (rats): significantly reversed |
